Laboratory results published in patent publication US20230095520A1, “PHARMACEUTICAL COMPOSITION FOR PREVENTING OR TREATING CANCER COMPRISING AZOLE DERIVATIVES OR PHARMACEUTICALLY ACCEPTABLE SALT THEREOF” (Yungjin Pharm. Co., Ltd., priority 2020, published 2023).

Assays:
Assay type in all cases: cell-based
[1] = test system: MV-4-11 cells; experiment: MV-4-11 cell proliferation inhibition (CCK-8); settings: Homo sapiens, MV4-11, MV-4-11 proliferation, 72 hours
Outline: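 The FLT3-mutant AML line MV-4-11 was exposed to compound for 72 h. Antiproliferative effect was read with the tetrazolium-based CCK-8 method.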

[2] = test system: OCI-AML2; experiment: Cancer cell proliferation GI50 (CCK-8); settings: Homo sapiens, OCI-AML2, acute myeloid leukemia, 72 hours
Experimental: (§1) In this example, in order to confirm the proliferation inhibitory effect on various cancer cells, Compound 121 was tested as follows.
(§2) The cells were cultured with a culture medium shown in Table 9 below at 37° C. in a humidified condition in the presence of 5% CO2. Each cell cultured in a 96-well cell culture plate was treated with the compound of the present invention and cultured for 72 hours.

[3] = test system: OVCAR-3; experiment: Cancer cell proliferation GI50 (CCK-8); settings: Homo sapiens, OVCAR-3, ovarian cancer, 72 hours
Experimental: as §1, §2

[4] = test system: MOLT4; experiment: Cancer cell proliferation GI50 (CCK-8); settings: Homo sapiens, MOLT-4, MOLT4, acute lymphocytic leukemia, 72 hours
Experimental: as §1, §2

[5] = test system: MOLM/AZA-1; experiment: Cancer cell proliferation GI50 (CCK-8); settings: MOLM/AZA-1, acute myeloid leukemia, 72 hours
Experimental: as §1, §2

[6] = test system: SK-BR-3; experiment: Cancer cell proliferation GI50 (CCK-8); settings: Homo sapiens, SK-BR-3, breast cancer, 72 hours
Experimental: as §1, §2

[7] = test system: MEG-01; experiment: Cancer cell proliferation GI50 (CCK-8); settings: Homo sapiens, MEG-01, chronic myeloid leukemia, 72 hours
Experimental: as §1, §2

[8] = test system: U937; experiment: Cancer cell proliferation GI50 (CCK-8); settings: Homo sapiens, U-937, U937, acute myeloid leukemia, 72 hours
Experimental: as §1, §2

[9] = test system: RPMI-8226; experiment: Cancer cell proliferation GI50 (CCK-8); settings: Homo sapiens, RPMI-8226, multiple myeloma, 72 hours
Experimental: as §1, §2

[10] = test system: THP/DEC-2; experiment: Cancer cell proliferation GI50 (CCK-8); settings: THP/DEC-2, acute myeloid leukemia, 72 hours
Experimental: as §1, §2

[11] = test system: MCF-7; experiment: Cancer cell proliferation GI50 (CCK-8); settings: Homo sapiens, MCF7, MCF-7, breast cancer, 72 hours
Experimental: as §1, §2

[12] = test system: BxPC-3; experiment: Cancer cell proliferation GI50 (CCK-8); settings: Homo sapiens, BxPC-3, pancreatic cancer, 72 hours
Experimental: as §1, §2

[13] = test system: JURKAT; experiment: Cancer cell proliferation GI50 (CCK-8); settings: Homo sapiens, T cell acute lymphocytic leukemia, 72 hours
Experimental: as §1, §2

[14] = test system: T47D; experiment: Cancer cell proliferation GI50 (CCK-8); settings: Homo sapiens, breast cancer, 72 hours
Experimental: as §1, §2

[15] = test system: KASUMI-2; experiment: Cancer cell proliferation GI50 (CCK-8); settings: KASUMI-2, B cell acute lymphocytic leukemia, 72 hours
Experimental: as §1, §2

[16] = test system: SR; experiment: Cancer cell proliferation GI50 (CCK-8); settings: Homo sapiens, immunoblastic large cell lymphoma, 72 hours
Experimental: as §1, §2

[17] = test system: KG-1; experiment: Cancer cell proliferation GI50 (CCK-8); settings: Homo sapiens, KG-1, acute myeloid leukemia, 72 hours
Experimental: as §1, §2

[18] = test system: DU145; experiment: Cancer cell proliferation GI50 (CCK-8); settings: Homo sapiens, DU-145, DU145, prostate cancer, 72 hours
Experimental: as §1, §2

[19] = test system: MOLM/CYT; experiment: Cancer cell proliferation GI50 (CCK-8); settings: acute myeloid leukemia, 72 hours
Experimental: as §1, §2

[20] = test system: MOLM-13; experiment: Cancer cell proliferation GI50 (CCK-8); settings: Homo sapiens, MOLM-13, acute myeloid leukemia (AML), 72 hours
Experimental: as §1, §2

[21] = test system: KU-812; experiment: Cancer cell proliferation GI50 (CCK-8); settings: Homo sapiens, KU812, KU-812, chronic myeloid leukemia, 72 hours
Experimental: as §1, §2

[22] = test system: THP-1; experiment: Cancer cell proliferation GI50 (CCK-8); settings: Homo sapiens, THP-1, acute myeloid leukemia, 72 hours
Experimental: as §1, §2

[23] = test system: CCRF-CEM; experiment: Cancer cell proliferation GI50 (CCK-8); settings: Homo sapiens, acute lymphocytic leukemia, 72 hours
Experimental: as §1, §2

[24] = test system: MOLM-14; experiment: Cancer cell proliferation GI50 (CCK-8); settings: Homo sapiens, MOLM-14, acute myeloid leukemia, 72 hours
Experimental: as §1, §2

[25] = test system: SKM-1; experiment: Cancer cell proliferation GI50 (CCK-8); settings: Homo sapiens, SKM-1, acute myeloid leukemia, 72 hours
Experimental: as §1, §2

[26] = test system: K562; experiment: Cancer cell proliferation GI50 (CCK-8); settings: Homo sapiens, K562, chronic myeloid leukemia (CML), 72 hours
Experimental: as §1, §2

[27] = test system: NALM-20; experiment: Cancer cell proliferation GI50 (CCK-8); settings: NALM-20, B cell acute lymphocytic leukemia, 72 hours
Experimental: as §1, §2

[28] = test system: TOM-1; experiment: Cancer cell proliferation GI50 (CCK-8); settings: TOM-1, B cell acute lymphocytic leukemia, 72 hours
Experimental: as §1, §2

[29] = test system: HCC1937; experiment: Cancer cell proliferation GI50 (CCK-8); settings: Homo sapiens, HCC1937, breast cancer, 72 hours
Experimental: as §1, §2

[30] = test system: NB4; experiment: Cancer cell proliferation GI50 (CCK-8); settings: Homo sapiens, NB-4, NB4, acute promyelocytic leukemia, 72 hours
Experimental: as §1, §2

[31] = test system: SKOV-3; experiment: Cancer cell proliferation GI50 (CCK-8); settings: Homo sapiens, SK-OV-3, SKOV-3, ovarian cancer, 72 hours
Experimental: as §1, §2

[32] = test system: MV-4-11; experiment: Cancer cell proliferation GI50 (CCK-8); settings: Homo sapiens, MV4-11, MV-4-11, acute myeloid leukemia, 72 hours
Experimental: as §1, §2

[33] = test system: HCT116; experiment: Cancer cell proliferation GI50 (CCK-8); settings: Homo sapiens, HCT-116, HCT116, large intestine cancer, 72 hours
Experimental: as §1, §2

[34] = test system: HeLa; experiment: Cancer cell proliferation GI50 (CCK-8); settings: Homo sapiens, cervical cancer, 72 hours
Experimental: as §1, §2

With `CCc1cnc(NC(=O)[C@@H](C)c2cccc(-c3cnc(NC(=O)/C=C/CN(C)C)c(C#N)c3)c2)s1` [Compound 121, (S,E)-N-(3-cyano-5-(3-(1-((5-ethylthiazol-2-yl)amino)-1-oxopropan-2-yl)phenyl)pyridin-2-yl)-4-(dimethylamino)but-2-enamide] as the molecule, how does the IC50 [1] read?
Its IC50 is 4.3 nM.

And the GI50 [2]?
Its GI50 is 7.74 nM.

What about the GI50 [3] of the same molecule?
Its GI50 is 4.8 nM.

What about the GI50 [4] of the same molecule?
The GI50 was 4.51 nM.

And the GI50 [5]?
The GI50 was 13.2 nM.

And the GI50 [6]?
The GI50 was 10.6 nM.

And the GI50 [7]?
The GI50 was 4 nM.

And the GI50 [8]?
The GI50 was 2.43 nM.

And the GI50 [9]?
Its GI50 is 16.4 nM.

What about the GI50 [10] of the same molecule?
The GI50 was 3.6 nM.

What about the GI50 [11] of the same molecule?
Its GI50 is 15.1 nM.

What about the GI50 [12] of the same molecule?
Its GI50 is 6.7 nM.

What about the GI50 [13] of the same molecule?
Its GI50 is 17.5 nM.

And the GI50 [14]?
The GI50 was 19.3 nM.

And the GI50 [15]?
The GI50 was 6.26 nM.

And the GI50 [16]?
The GI50 was 5.83 nM.

What about the GI50 [17] of the same molecule?
The GI50 was 29 nM.

And the GI50 [18]?
The GI50 was 11.5 nM.

What about the GI50 [19] of the same molecule?
The GI50 was 0.94 nM.

And the GI50 [20]?
Its GI50 is 19 nM.

And the GI50 [21]?
Its GI50 is 3.64 nM.

What about the GI50 [22] of the same molecule?
The GI50 was 1.95 nM.

What about the GI50 [23] of the same molecule?
The GI50 was 15.6 nM.

What about the GI50 [24] of the same molecule?
Its GI50 is 2.77 nM.

What about the GI50 [25] of the same molecule?
Its GI50 is 25 nM.

What about the GI50 [26] of the same molecule?
The GI50 was 18.9 nM.

What about the GI50 [27] of the same molecule?
Its GI50 is 18.6 nM.

What about the GI50 [28] of the same molecule?
Its GI50 is 4.36 nM.

What about the GI50 [29] of the same molecule?
Its GI50 is 14.6 nM.

What about the GI50 [30] of the same molecule?
Its GI50 is 12.9 nM.

What about the GI50 [31] of the same molecule?
Its GI50 is 9.6 nM.

What about the GI50 [32] of the same molecule?
The GI50 was 11.8 nM.

And the GI50 [33]?
Its GI50 is 4 nM.

What about the GI50 [34] of the same molecule?
Its GI50 is 10.8 nM.
